Assay results reported in patent US9206122B2, “Pesticidal arylpyrrolidines” (BAYER INTELLECTUAL PROPERTY GMBH, priority 2012, dated 2015).

Columns and labels:
Type in all cases: in vivo
Boophilus microplus = Boophilus microplus injection test; conditions: 20 μg/animal, injected into abdomen of adult engorged female ticks; egg deposition monitored after 7 days
Experimental: Boophilus microplus Injectiontest Solvent: dimethyl sulfoxide To produce a suitable preparation of active compound, 10 mg of active compound are dissolved in 0.5 ml solvent, and the concentrate is diluted with solvent to the desired concentration. Five adult engorged female ticks (Boophilus microplus) are injected with 1 μl compound solution into the abdomen. Ticks are transferred into replica plates and incubated in a climate chamber. After 7 days, the egg deposition of fertile eggs is monitored. Eggs where fertility is not visible are stored in glass tubes in a climate chamber till hatching after about 42 days. An efficacy of 100% means that all eggs are infertile; 0% means that all eggs are fertile.

Lucilia cuprina = test: whole plant or invertebrate; conditions: in Equus caballus, 48 h
Experimental: solvent: dimethyl sulfoxide
10 mg active compound are dissolved in 0.5 ml Dimethylsulfoxid. Serial dilutions are made to obtain the desired rates.
Approximately 20 1st instar larvae of the Australian sheep blowfly (Lucilia cuprina) are transferred into a test tube containing minced horse meat and compound solution of the desired concentration.
After 2 days mortality in % is determined. 100% means that all the larvae have been killed; 0% means that none of the larvae have been killed.

Musca domestica = test: whole plant or invertebrate; conditions: 48 h
Experimental: (§1) Solvent: dimethyl sulfoxide
To produce a suitable preparation of active compound, 10 mg of active compound are dissolved in 0.5 ml solvent, and the concentrate is diluted with water to the desired concentration.
10 adult house flies (Musca domestica) are transferred into a container, containing a sponge soaked with a mixture of sugar solution and compound solution of the desired concentration.
After 2 days mortality in % is determined. 100% means that all the flies have been killed; 0% means that none of the flies have been killed.

Ctenocephalides felis = test: whole plant or invertebrate; conditions: po, 48 h
Experimental: Ctenocephalides felis—Oral Test
as §1
To produce a suitable preparation of active compound, 10 mg of active compound are dissolved in 0.5 ml solvent, and the concentrate is diluted with cattle blood to the desired concentration.
Approximately 20 adult unfed cat fleas (Ctenocephalides felis) are placed in flea chambers. The blood chamber, sealed with parafilm on the bottom, are filled with cattle blood supplied with compound solution and placed on the gauze covered top of the flea chamber, so that the fleas are able to suck the blood. The blood chamber is heated to 37° C. whereas the flea chamber is kept at room temperature.
After 2 days mortality in % is determined 100% means that all the fleas have been killed; 0% means that none of the fleas have been killed.

Tetranychus urticae = test: whole plant or invertebrate; conditions: 144 h
Experimental: Tetranychus urticae—Spray Test, OP-Resistant
(§2) Solvent: 78.0 parts by weight acetone
(§3) • 1.5 parts by weight dimethylformamide Emulsifier: 0.5 parts by weight alkylarylpolyglycolether
(§4) To produce a suitable preparation of active compound, 1 part by weight of active compound is mixed with the stated amount of solvent and emulsifier, and the concentrate is diluted with emulsifier-containing water to the desired concentration.
French beans (Phaseolus vulgaris) which are heavily infested with all stages of the two spotted spidermite (Tetranychus urticae), are sprayed with a preparation of the active ingredient of the desired concentration.
After 6 days, mortality in % is determined. 100% means that all spider mites have been killed and 0% means that none of the spider mites have been killed.

Phaedon cochleariae = test: whole plant or invertebrate; conditions: in Brassica rapa, foliar, 168 h
Experimental: Phaedon cochleariae—Spray Test
Solvent: 78.0 parts by weight of acetone
• 1.5 parts by weight of dimethylformamide Emulsifier: 0.5 parts by weight of alkylaryl polyglycolether
as §4
Chinese cabbage (Brassica pekinensis) leaf-disks are sprayed with a preparation of the active ingredient of the desired concentration. Once dry, the leaf disks are infested with mustard beetle larvae (Phaedon cochleariae).
After 7 days mortality in % is determined. 100% means that all beetle larvae have been killed and 0% means that none of the beetle larvae have been killed.

Spodoptera frugiperda = test: whole plant or invertebrate; conditions: in Zea mays, 168 h
Experimental: Spodoptera frugiperda—Spray Test
as §2, §3
To produce a suitable preparation of the active compound, 1 part by weight of active compound is mixed with the stated amount of solvent and emulsifier, and the concentrate is diluted with emulsifier-containing water to the desired concentration.
Maize (Zea mays) leaf sections are sprayed with a preparation of the active ingredient of the desired concentration. Once dry, the leaf sections are infested with fall armyworm larvae (Spodoptera frugiperda).
After 7 days, mortality in % is determined 100% means that all caterpillars have been killed and 0% means that none of the caterpillars have been killed.

Myzus persicae = test: whole plant or invertebrate; conditions: in Brassica rapa, foliar, 144 h
Experimental: Myzus persicae—Spray Test
as §2, §3, §4
Chinese cabbage (Brassica pekinensis) leaf disks infected with all instars of the green peach aphid (Myzus persicae), are sprayed with a preparation of the active ingredient of the desired concentration.
After 6 days, mortality in % is determined 100% means that all aphids have been killed; 0% means that none of the aphids have been killed.

O=C(CC1CC1)NC1CCc2cc(N3CCC(c4cc(Cl)c(Cl)c(Cl)c4)(C(F)(F)F)C3O)ccc21 (stereo not drawn) [I-A-21]
efficacy (100% means that all eggs are infertile) (Boophilus microplus): 100%

O=C(NC1CCc2cc(N3CCC(c4ccc(F)c(C(F)(F)F)c4)(C(F)(F)F)C3O)ccc21)C1CC1 (stereo not drawn) [I-A-115]
efficacy (100% means that all eggs are infertile) (Boophilus microplus): 100%

CC(=O)NC1CCc2cc(N3CCC(c4cc(Cl)cc(Cl)c4)(C(F)(F)F)C3O)ccc21 (stereo not drawn) [I-A-1]
efficacy (100% means that all eggs are infertile) (Boophilus microplus): 100%

O=C(NC1CCc2cc(N3CCC(c4cc(Cl)cc(C(F)(F)F)c4)(C(F)(F)F)C3O)ccc21)C1CC1 (stereo not drawn) [I-A-79]
efficacy (100% means that all eggs are infertile) (Boophilus microplus): 100%

CCCC(=O)NC1CCc2cc(N3CCC(c4cc(C(F)(F)F)cc(C(F)(F)F)c4)(C(F)(F)F)C3O)ccc21 (stereo not drawn) [I-A-40]
efficacy (100% means that all eggs are infertile) (Boophilus microplus): 100%

CC(=O)NC1CCc2cc(N3CCC(c4cc(C(F)(F)F)cc(C(F)(F)F)c4)(C(F)(F)F)C3O)ccc21 (stereo not drawn) [I-A-37]
efficacy (100% means that all eggs are infertile) (Boophilus microplus): 100%

CCC(=O)NC1CCc2cc(N3CCC(c4cc(Cl)cc(Cl)c4)(C(F)(F)F)C3O)ccc21 (stereo not drawn) [I-A-2]
mortality at 100 ppm (Lucilia cuprina): 100% | mortality at 100 ppm (Musca domestica): 80% | efficacy (100% means that all eggs are infertile) (Boophilus microplus): 100% | mortality at 100 ppm (Ctenocephalides felis): 100%

O=C(CC1CC1)NC1CCc2cc(N3CCC(c4cc(Cl)c(F)c(Cl)c4F)(C(F)(F)F)C3O)ccc21 (stereo not drawn) [I-A-33]
efficacy (100% means that all eggs are infertile) (Boophilus microplus): 100%

CC(=O)NC1CCc2cc(N3CCC(c4cc(Cl)c(Cl)c(Cl)c4)(C(F)(F)F)C3O)ccc21 (stereo not drawn) [I-A-13]
efficacy (100% means that all eggs are infertile) (Boophilus microplus): 100%

CC(C)CC(=O)NC1CCc2cc(N3CCC(c4cc(Cl)c(Cl)c(Cl)c4)(C(F)(F)F)C3O)ccc21 (stereo not drawn) [I-A-18]
efficacy (100% means that all eggs are infertile) (Boophilus microplus): 100%

CCC(=O)NC1CCc2cc(N3CCC(c4cc(C(F)(F)F)cc(C(F)(F)F)c4)(C(F)(F)F)C3O)ccc21 (stereo not drawn) [I-A-38, N-(5-{3-[3,5-bis(trifluoromethyl)phenyl]-2-hydroxy-3-(trifluoromethyl)pyrrolidin-1-yl}-2,3-dihydro-1H-inden-1-yl)propanamide]
mortality at 100 g/ha (Tetranychus urticae): 90% | mortality at 100 g/ha (Phaedon cochleariae): 100% | mortality at 100 g/ha (Spodoptera frugiperda): 100% | mortality at 100 g/ha (Myzus persicae): 100%

O=C(NC1CCc2cc(N3CCC(c4cc(Cl)c(F)c(Cl)c4F)(C(F)(F)F)C3O)ccc21)C1CC1 (stereo not drawn) [I-A-31]
efficacy (100% means that all eggs are infertile) (Boophilus microplus): 100%
